The text below walks through data of US20150031739A1, “PANOBINOSTAT FOR USE IN THE TREATMENT OF HIV-1” (Aarhus Universitet, priority 2012, published 2015).

For test [1], the system named is HIV-1 expression in U1 cells. Kind of test: HIV-1 activation from U1 cells (p24 gag ELISA). Type of test: cell-based. Particulars: 48 hours. How it is done: (§1) HIV-1 activation from U1 cells: U1 cells (obtained through the NIH AIDS Reagent Program) are seeded at 2*10^5/well in a 96-well format in 100 uL RPMI media supplemented with 10% heat inactivated Foetal Bovine Serum and 1% penicillin/streptomycin. HDACi and PMA as positive control is added at desired concentrations in 100 uL. Identical DMSO levels is used for untreated control. All stimulations are performed in triplicate. 48 hours later supernatant is harvested and left for inactivation in 1% Empegen for 1 hour. Levels of HIV-1 p24 gag levels is determined by ELISA as described by the manufacturer (Aalto Bioreagents, Dublin, Ireland).
For orientation: An ELISA detects its analyte on a solid surface through an enzyme-linked reagent.

Test [2] has as its system HIV-1 expression in ACH2 cells. In words: HIV-1 activation from ACH2 cells (p24 gag ELISA). Type of test: cell-based. Particulars: 48 hours. The procedure: as §1, with “ACH2” for “U1”, “1*10^5/well” for “2*10^5/well”, “Samples are diluted 1/500 and levels” for “Levels”, “gag” for “gag levels”
Test [3] has as its system CXCR4. The settings on record: CD4+ T-cells; cited from earlier work.
Test [4] has as its system CCR5. Particulars: monocytes; cited from earlier work.
Test [5] concerns latent viral reservoir. Particulars: clinical study; effect could not be sustained in further studies; cited from earlier work.

`CCN(CC)Cc1ccc2cc(COC(=O)Nc3ccc(C(=O)NO)cc3)ccc2c1` [ITF2357]: the “fold increase in median p24 levels with reference to untreated cultures” value (shortened to “fold increase in median p24 levels”) in test [1] (125 nM) amounted to 3.2 fold; in test [1] (250 nM), 9.2 fold; in test [2] (125 nM), 6.2 fold; in test [2] (250 nM), 18.5 fold. In test [3], the “surface expression of CXCR4” value is given as “decreased surface expression”. Besides, in test [4], the “surface expression of CCR5” value is “decreased surface expression”.

For `O=C(/C=C/c1cccc(S(=O)(=O)Nc2ccccc2)c1)NO` [PXD101], the “fold increase in median p24 levels” value in test [1] (125 nM) is 2.4 fold; in test [1] (250 nM) it was 7.4 fold; in test [2] (125 nM) it was 5.8 fold; in test [2] (250 nM), 18.3 fold.

As to `O=C(CCCCCCC(=O)Nc1ccccc1)NO` [SAHA, suberoylanilide hydroxamic acid], the “fold increase in median p24 levels” value in test [1] (125 nM) turned out to be 1.0 fold; in test [1] (250 nM), 1.5 fold; in test [1] (500 nM) it was 3.1 fold; in test [2] (125 nM), 1.4 fold; in test [2] (250 nM), 2.4 fold; in test [2] (500 nM), 6.9 fold.

Turning to `CCCC(CCC)C(=O)O` [VPA, valproic acid], the “fold increase in median p24 levels” value in test [1] (0.25 mM) is given as 1.4 fold; in test [1] (0.5 mM) it was 2.8 fold; in test [2] (0.25 mM) it was 2.1 fold; in test [2] (0.5 mM), 7.3 fold. The “patients in whom depletion of the latent viral reservoir was seen” value in test [5] is on record as 3 of 4.
